Measured values from patent US20240199597A1, “SMALL MOLECULES FOR THE TREATMENT OF KINASE-RELATED DISEASES” (Athos Therapeutics, Inc., priority 2021, published 2024).

Legend:
HT-29 cells = test: Reduction of colorectal tumor mass, HT-29 xenograft in nude mice; assay type: in vivo, Male nude mice; settings: 5 mg/kg I.P. every 48 h
Method: Male nude mice ages 6-8 weeks (NU/J. Jackson Laboratories) received rear, hind leg flank subcutaneous injections of 5×10^6 HT-29 cells diluted 1:1 in matrigel-cell culture media. Mice were then monitored daily until tumor nodules reached 100-200 mm^3 upon which point they were randomized into treatment groups based on their weight and tumor size and treatment. Mice (10 mice per group) were injected I.P. every 48 h with 100 μL of either vehicle control or Compound 8 (5 mg/kg). Tumor nodules were then monitored every 48 h for up to 28 days with tumor volumes calculated using the equation V=(L*W2)/2 where L is length and W is width of a tumor. Differences in xenograft volumes between the different groups were analyzed by single factor analysis of variance of the log-transformed tumor volume data. Mice with tumors that exceed 1000 mm^3 were euthanized to avoid excessive suffering.

Kasumi-1 = test: Cancer cytotoxicity assay (Real-Time-Glo cell viability), Kasumi-1; assay type: cell-based; settings: Homo sapiens, leukemia cell, 72 hr
Method: (§1) The cytotoxicity of Compounds 1, 3, 4, 6, 7, 8, 9, 10, 12 and 13 against cancer cell lines was determined. To determine the optimal plating density for cell viability assays, for each cell line, cells were counted and diluted to final densities of 2.5, 5, 10 and 20 thousand per 100 μL of their respective growth media per well in 96 well plates. The Promega Real-Time-Glo cell viability kit was used to determine the optimal concentration for cell plating so that each cell line would be within the linear part of its growth curve after 72 hrs in culture. For the determination of test compound IC50s, different cancer cell lines were plated in 96 well plates in the pre-determined optimal density for each cell line. Test compounds were then added at different concentrations for the creation of six-point curve and cell density was determined using the Promega Real-Time-Glo cell viability kit after 24, 48, and 72 hrs in culture.

Kasumi-3 = test: Cancer cytotoxicity assay (Real-Time-Glo cell viability), Kasumi-3; assay type: cell-based; settings: leukemia cell, 72 hr
Method: as §1

786-O = test: Cancer cytotoxicity assay (Real-Time-Glo cell viability), 786-O; assay type: cell-based; settings: Homo sapiens, 786-0; kidney cancer, 72 hr
Method: as §1

PLK4 = molecular target: T1, PLK4 (Homo sapiens, UniProt O00444); test: Kinase inhibition assay (Eurofins DiscoverX KinaseProfiler / KdElect), PLK4; assay type: biochemical
T1 construct: purchased Eurofins DiscoverX (contract service)
T1 sequence (O00444 1-970): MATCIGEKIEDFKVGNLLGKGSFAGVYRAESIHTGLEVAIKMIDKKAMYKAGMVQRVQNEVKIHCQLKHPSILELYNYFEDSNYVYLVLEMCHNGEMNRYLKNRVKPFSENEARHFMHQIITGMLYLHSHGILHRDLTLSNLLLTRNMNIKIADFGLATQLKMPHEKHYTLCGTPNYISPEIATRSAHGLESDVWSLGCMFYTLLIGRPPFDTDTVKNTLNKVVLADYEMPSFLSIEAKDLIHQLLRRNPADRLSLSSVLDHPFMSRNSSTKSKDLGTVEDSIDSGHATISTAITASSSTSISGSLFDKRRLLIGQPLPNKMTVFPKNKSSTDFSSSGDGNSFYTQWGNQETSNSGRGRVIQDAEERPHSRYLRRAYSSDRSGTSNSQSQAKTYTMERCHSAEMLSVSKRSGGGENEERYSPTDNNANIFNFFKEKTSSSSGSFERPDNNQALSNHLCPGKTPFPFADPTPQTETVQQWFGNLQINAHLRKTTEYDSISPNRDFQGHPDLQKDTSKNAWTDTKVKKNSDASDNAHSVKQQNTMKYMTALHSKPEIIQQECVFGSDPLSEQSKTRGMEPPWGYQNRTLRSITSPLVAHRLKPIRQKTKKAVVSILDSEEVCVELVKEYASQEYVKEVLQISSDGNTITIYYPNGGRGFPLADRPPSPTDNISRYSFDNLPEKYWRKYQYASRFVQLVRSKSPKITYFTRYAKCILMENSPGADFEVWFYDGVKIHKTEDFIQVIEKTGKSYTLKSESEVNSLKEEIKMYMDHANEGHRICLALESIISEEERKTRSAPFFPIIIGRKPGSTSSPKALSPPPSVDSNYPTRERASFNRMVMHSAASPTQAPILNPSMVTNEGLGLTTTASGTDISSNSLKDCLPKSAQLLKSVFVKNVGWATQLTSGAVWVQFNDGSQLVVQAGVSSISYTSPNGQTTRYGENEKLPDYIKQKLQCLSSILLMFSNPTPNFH
Method: (§2) The activity of Compounds 1, 3, 4, 6, 7, 8, 9, 10 and 13 in inhibiting CLK1, CLK4, PLK4, and FLT3 kinases was determined. Stock solutions of the compounds being evaluated were prepared. The IC50 values were determined by the Eurofins DiscoverX services using either the KinaseProfiler or the KdElect kinase activity detection assays.

CLK4 = molecular target: T2, CLK4 (Homo sapiens, UniProt Q9HAZ1); test: Kinase inhibition assay (Eurofins DiscoverX KinaseProfiler / KdElect), CLK4; assay type: biochemical
T2 construct: purchased Eurofins DiscoverX (contract service)
T2 sequence (Q9HAZ1 whole entry): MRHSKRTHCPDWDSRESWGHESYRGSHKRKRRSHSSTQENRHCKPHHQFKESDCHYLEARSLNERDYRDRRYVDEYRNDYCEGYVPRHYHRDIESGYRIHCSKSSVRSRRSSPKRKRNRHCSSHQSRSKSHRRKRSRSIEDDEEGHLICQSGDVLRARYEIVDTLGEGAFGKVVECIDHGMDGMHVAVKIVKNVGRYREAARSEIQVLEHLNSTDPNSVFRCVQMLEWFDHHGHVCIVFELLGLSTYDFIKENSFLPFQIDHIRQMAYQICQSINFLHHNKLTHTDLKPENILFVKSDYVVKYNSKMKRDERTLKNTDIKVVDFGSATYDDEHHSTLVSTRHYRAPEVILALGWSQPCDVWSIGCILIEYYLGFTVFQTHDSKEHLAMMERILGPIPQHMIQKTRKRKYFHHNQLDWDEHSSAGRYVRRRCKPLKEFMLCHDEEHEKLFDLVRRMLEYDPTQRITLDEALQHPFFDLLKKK
Method: as §2

HCT-116 = test: Cancer cytotoxicity assay (Real-Time-Glo cell viability), HCT-116; assay type: cell-based; settings: Homo sapiens, colorectal cancer cell line, 72 hr
Method: as §1

CLK1 = molecular target: T3, CLK1 (Homo sapiens, UniProt P49759); test: Kinase inhibition assay (Eurofins DiscoverX KinaseProfiler / KdElect), CLK1; assay type: biochemical
T3 construct: purchased Eurofins DiscoverX (contract service)
T3 sequence (P49759 whole entry): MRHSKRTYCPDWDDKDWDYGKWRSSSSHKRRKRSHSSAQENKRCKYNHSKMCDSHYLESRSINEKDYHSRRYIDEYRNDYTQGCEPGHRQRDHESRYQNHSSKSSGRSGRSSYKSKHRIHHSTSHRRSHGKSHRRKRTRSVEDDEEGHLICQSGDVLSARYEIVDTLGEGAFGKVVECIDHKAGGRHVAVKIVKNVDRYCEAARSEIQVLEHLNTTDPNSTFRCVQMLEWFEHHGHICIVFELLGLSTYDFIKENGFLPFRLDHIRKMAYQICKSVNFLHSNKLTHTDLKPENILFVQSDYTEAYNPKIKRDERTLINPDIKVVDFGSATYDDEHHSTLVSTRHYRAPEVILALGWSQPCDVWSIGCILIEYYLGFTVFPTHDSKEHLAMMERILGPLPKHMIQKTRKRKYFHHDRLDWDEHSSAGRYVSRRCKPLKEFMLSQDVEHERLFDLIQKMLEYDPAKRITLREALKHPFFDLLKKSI
Method: as §2

A-498 = test: Cancer cytotoxicity assay (Real-Time-Glo cell viability), A-498; assay type: cell-based; settings: Homo sapiens, A498; kidney cancer, 72 hr
Method: as §1

MV4-11 = test: Cancer cytotoxicity assay (Real-Time-Glo cell viability), MV4-11; assay type: cell-based; settings: Homo sapiens, leukemia cell, 72 hr
Method: as §1

OV-90 = test: Cancer cytotoxicity assay (Real-Time-Glo cell viability), OV-90; assay type: cell-based; settings: Homo sapiens, ovarian cancer cell line, 72 hr
Method: as §1

SKOV-3 = test: Cancer cytotoxicity assay (Real-Time-Glo cell viability), SKOV-3; assay type: cell-based; settings: Homo sapiens, SK-OV-3; ovarian cancer cell line, 72 hr
Method: as §1

HT-29 = test: Cancer cytotoxicity assay (Real-Time-Glo cell viability), HT-29; assay type: cell-based; settings: Homo sapiens, colorectal cancer cell line, 72 hr
Method: as §1

FLT3 = molecular target: T4, FLT3 (Homo sapiens, UniProt P36888); test: Kinase assay (Eurofins DiscoverX KinaseProfiler / KdElect), FLT3; assay type: binding; settings: read-out: FLT3 (Kd50 nM)
T4 construct: purchased Eurofins DiscoverX (contract service)
T4 sequence (P36888 27-993): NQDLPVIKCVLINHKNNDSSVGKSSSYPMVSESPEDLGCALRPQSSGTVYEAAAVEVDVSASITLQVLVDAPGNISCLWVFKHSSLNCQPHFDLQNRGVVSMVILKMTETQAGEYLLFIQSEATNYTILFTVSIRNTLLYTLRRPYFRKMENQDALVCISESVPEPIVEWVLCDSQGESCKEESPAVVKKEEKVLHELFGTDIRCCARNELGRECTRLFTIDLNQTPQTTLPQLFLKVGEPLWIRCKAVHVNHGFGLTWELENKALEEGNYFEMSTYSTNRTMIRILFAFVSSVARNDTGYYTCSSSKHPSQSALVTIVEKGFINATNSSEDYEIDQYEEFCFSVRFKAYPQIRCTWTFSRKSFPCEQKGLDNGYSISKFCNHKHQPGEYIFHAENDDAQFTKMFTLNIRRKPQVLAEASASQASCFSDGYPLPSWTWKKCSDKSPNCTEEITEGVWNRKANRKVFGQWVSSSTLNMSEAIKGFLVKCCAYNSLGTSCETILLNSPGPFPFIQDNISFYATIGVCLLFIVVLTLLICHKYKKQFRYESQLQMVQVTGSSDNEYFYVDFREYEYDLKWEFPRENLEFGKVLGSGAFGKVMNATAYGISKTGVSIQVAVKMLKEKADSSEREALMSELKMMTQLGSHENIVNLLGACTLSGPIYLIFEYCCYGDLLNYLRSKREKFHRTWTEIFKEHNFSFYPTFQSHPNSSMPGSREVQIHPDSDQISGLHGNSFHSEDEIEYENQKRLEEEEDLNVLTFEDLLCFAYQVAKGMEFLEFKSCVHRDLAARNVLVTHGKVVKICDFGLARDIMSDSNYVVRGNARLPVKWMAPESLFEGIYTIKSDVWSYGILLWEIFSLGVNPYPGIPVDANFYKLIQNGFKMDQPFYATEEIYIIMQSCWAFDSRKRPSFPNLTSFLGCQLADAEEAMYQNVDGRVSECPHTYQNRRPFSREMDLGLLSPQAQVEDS
Method: Stock solutions of the compounds being evaluated were prepared. The IC50 values were determined by the Eurofins DiscoverX services using either the KinaseProfiler or the KdElect kinase activity detection assays.

IC50 (PLK4): < 1000 nM
IC50 (CLK4): < 1000 nM
IC50 (CLK1): < 1000 nM
Kd (FLT3): < 1000 nM
SMILES: CCc1cc(Nc2nc(N3CCC(F)(F)CC3)nc3cc(OCCCN4CCCC4)c(OC)cc23)n[nH]1 [Compound 8, 2-(4,4-difluoropiperidin-1-yl)-N-(5-ethyl-1H-pyrazol-3-yl)-6-methoxy-7-(3-(pyrrolidin-1-yl)propoxy)quinazolin-4-amine]
tumor growth compared to vehicle control (FIG. 3A) (HT-29 cells; 16 day study): significantly slower tumor growth
tumors on day 16 compared to vehicle (HT-29 cells; day 16): significantly smaller tumors
increase of tumor (FIG. 3B, tumor mass) (HT-29 cells; vehicle 600%): 370%
IC50 (Kasumi-1): 1000 to 5000 nM
IC50 (Kasumi-3): 1000 to 5000 nM
IC50 (786-O): 1000 to 5000 nM
IC50 (HCT-116): 1000 to 5000 nM
IC50 (A-498): 1000 to 5000 nM
IC50 (MV4-11): < 1000 nM
IC50 (OV-90): 1000 to 5000 nM
IC50 (SKOV-3): 1000 to 5000 nM
IC50 (HT-29): 1000 to 5000 nM
